Earlier results, collected in patent US20160129117A1, “Novel Boronic Acid Compound Preparation” (NIPPON KAYAKU KABUSHIKI KAISHA, priority 2013, published 2016).
Like-named read-outs stand apart in the source and are kept apart here.

Columns and labels:
[1] = in vivo

CC(C)C[C@H](NC(=O)[C@H](Cc1ccccc1)NC(=O)c1cnccn1)B(O)O [bortezomib]
incidence of grade 3 peripheral neuropathy (intravenous administration): 16% | incidence of grade 3 peripheral neuropathy (subcutaneous administration): 6% | total dose causing the peripheral nerve toxicity [1]: about 30 mg/m^2
